How the values were obtained:
GSK-3 = GSK-3 inhibition, isoform not stated; type: biochemical; conditions: no activity defined as an IC50 >10μM
MAPK5/PRAK = conditions: at 2μM; cited from earlier work
[1] = test system: other kinases tested having a lysine at a position comparable to Arg141 in GSK-3β; conditions: kinases with lysine at position comparable to Arg141; at 2 μM; cited from earlier work
broad kinase screen = conditions: cited from earlier work

Structure (SMILES)	activity (GSK-3 inhibition, in words) (GSK-3)	% inhibition (MAPK5/PRAK)	% inhibition [1]	kinase selectivity (in words) (broad kinase screen)
OC1(c2ccccc2)CSC(=S)N1Cc1ccccn1 (stereo not drawn) [Compound 3d]	no activity			
OC1(c2ccccc2)CSC(=S)N1Cc1ccncc1 (stereo not drawn) [Compound 3c]	excellent activity	60%	< 30%	the only kinases significantly inhibited by 3c were GSK-3β and GSK-3α
OC1(c2ccccc2)CSC(=S)N1Cc1ccccc1 (stereo not drawn) [Compound 3a]	no activity			

From publication PMC11808539 (Bioorganic & medicinal chemistry letters, 2024)
